# Test results as given in ChEMBL document CHEMBL1151027, “Inhibition of human immunodeficiency virus-1 protease by a C2-symmetrical phosphinic acid amide” (Bioorg Med Chem Lett, 1994).
# Legend:
# [1] = molecular target: Human immunodeficiency virus type 1 protease (Human immunodeficiency virus 1, UniProt Q72874); assay: Inhibitory activity if the compound was determined against HIV protease
# [2] = (§1) Effective concentration required to inhibit HIV replication in peripheral blood mononuclear cells (PBL); type: functional, Homo sapiens
# [3] = as §1; type: functional; details: Homo sapiens
SMILES,IC50 [1],EC50 ([2]; Homo sapiens),EC50 [2],EC50 [3]
CC(C)[C@H](NC(=O)[C@H](Cc1cccc2ccccc12)CS(=O)(=O)C(C)(C)C)C(=O)NCP(N)(=O)CNC(=O)[C@@H](NC(=O)[C@H](Cc1cccc2ccccc12)CS(=O)(=O)C(C)(C)C)C(C)C,5.5 nM,> 10000 nM,,
CC(C)[C@H](NC(=O)[C@H](Cc1cccc2ccccc12)CS(=O)(=O)C(C)(C)C)C(=O)NCP(=O)(CNC(=O)[C@@H](NC(=O)[C@H](Cc1cccc2ccccc12)CS(=O)(=O)C(C)(C)C)C(C)C)NN,8.5 nM,> 10000 nM,,
COP(=O)(CNC(=O)[C@@H](NC(=O)[C@H](Cc1cccc2ccccc12)CS(=O)(=O)C(C)(C)C)C(C)C)CNC(=O)[C@@H](NC(=O)[C@H](Cc1cccc2ccccc12)CS(=O)(=O)C(C)(C)C)C(C)C,950 nM,> 10000 nM,,
CC(C)[C@H](NC(=O)[C@H](Cc1cccc2ccccc12)CS(=O)(=O)C(C)(C)C)C(=O)NCP(=O)(O)CNC(=O)[C@@H](NC(=O)[C@H](Cc1cccc2ccccc12)CS(=O)(=O)C(C)(C)C)C(C)C,1.1 nM,> 10000 nM,,
CC(C)[C@H](NC(=O)[C@H](Cc1cccc2ccccc12)CS(=O)(=O)C(C)(C)C)C(=O)N[C@H](Cc1ccccc1)P(=O)(O)[C@@H](Cc1ccccc1)NC(=O)[C@@H](NC(=O)[C@H](Cc1cccc2ccccc12)CS(=O)(=O)C(C)(C)C)C(C)C,85 nM,> 10000 nM,,
CC(C)[C@H](NC(=O)[C@H](Cc1cccc2ccccc12)CS(=O)(=O)C(C)(C)C)C(=O)N[C@H](Cc1ccccc1)P(N)(=O)[C@@H](Cc1ccccc1)NC(=O)[C@@H](NC(=O)[C@H](Cc1cccc2ccccc12)CS(=O)(=O)C(C)(C)C)C(C)C,1 nM,,100 nM,
"CC(C)[C@H](NC(=O)[C@H](Cc1cccc2ccccc12)CS(=O)(=O)C(C)(C)C)C(=O)NC(Cc1ccccc1)P(=O)(O)C(Cc1ccccc1)NC(=O)[C@@H](NC(=O)[C@H](Cc1cccc2ccccc12)CS(=O)(=O)C(C)(C)C)C(C)C (single isomer, unassigned)",0.5 nM,,,> 10000 nM
"CC(C)[C@H](NC(=O)[C@H](Cc1cccc2ccccc12)CS(=O)(=O)C(C)(C)C)C(=O)NC(Cc1ccccc1)P(N)(=O)C(Cc1ccccc1)NC(=O)[C@@H](NC(=O)[C@H](Cc1cccc2ccccc12)CS(=O)(=O)C(C)(C)C)C(C)C (single isomer, unassigned)",250 nM,,> 10000 nM,
